This passage reports T/C results from PubChem BioAssay AID272 (DTP/NCI, 2004).

For this assay, the system named is Lewis lung carcinoma i.m., BDF1 mice, T/C %. The experiment in a line: NCI In Vivo Anticancer Drug Screen. Data for tumor model Lewis Lung Carcinoma (intramuscular) in B6D2F1 (BDF1) mice. The settings on record: vehicle: water. Put shortly: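 Value is the ratio of a treated-group measurement (T) to the matching vehicle-control measurement (C), using either survival or tumour size in mice bearing transplanted tumours.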

Results filed as inconclusive are left out.

`Nc1n[nH]c(N)n1`: the T/C reads like this: (endpoint: mean tumor weight, dose: 125.0 mg/kg/injection, schedule: Q03HX024 (ip), higher = larger tumour) 89 % of control; (endpoint: mean tumor weight, dose: 250.0 mg/kg/injection, schedule: Q03HX024 (ip), higher = larger tumour) 81 % of control; (endpoint: mean tumor weight, dose: 750.0 mg/kg/injection, schedule: Q01DX009 (ip), higher = larger tumour) 72 % of control; (endpoint: mean tumor weight, dose: 750.0 mg/kg/injection, schedule: Q01DX011 (ip), higher = larger tumour) 68 % of control; (endpoint: median survival time, dose: 375.0 mg/kg/injection, schedule: Q01DX009 (ip), higher = longer survival) 116 % of control; (endpoint: median survival time, dose: 375.0 mg/kg/injection, schedule: Q01DX011 (ip), higher = longer survival) 110 % of control. In addition, the T/C is 124 % of control (endpoint: median survival time, dose: 750.0 mg/kg/injection, schedule: Q01DX009 (ip), higher = longer survival); 104 % of control (endpoint: median survival time, dose: 750.0 mg/kg/injection, schedule: Q01DX011 (ip), higher = longer survival); 124 % of control (endpoint: median survival time, dose: 1500.0 mg/kg/injection, schedule: Q01DX011 (ip), higher = longer survival).
